Measurements as given in patent US9845323B2, “2-(1,3,4-oxadiazol-2-yl)-7-oxo-1,6-diazabicyclo[3.2.1 ]octane derivatives and their use as antibacterial agents” (WOCKHARDT LIMITED, priority 2014, dated 2017).
In brackets after ≈: the same amount, converted by molar mass.

Tests used:
K. pneumoniae H 525 = assay: Agar dilution MIC (CLSI), compound alone; format: cell-based; conditions: Klebsiella pneumoniae, H525
Description: (§1) The biological activity of representative compounds according to the invention against various bacterial strains was investigated. In a typical study, overnight grown bacterial cultures were diluted appropriately and inoculated on the agar media containing doubling dilutions of the test compounds. Observations for growth or no growth was performed after 16-20 hours of incubation at 35±2° C. in the ambient air. The overall procedure was performed as per Clinical and Laboratory Standards Institute (CLSI) recommendations, (Clinical and Laboratory Standards Institute (CLSI), Performance Standards for Antimicrobial Susceptibility Testing, 20th Informational Supplement, M 07-A9, Volume 32, No. 2, 2012). Molten Mueller Hinton Agar (BD, USA) containing serial dilutions of each antibacterial agent were poured on to the plates and allowed to solidify. Appropriate suspensions from the freshly grown cultures were prepared in normal saline so that about 10^4 CFU/spot of the organism was delivered on to the drug containing agar plates using automated multipoint inoculator (Mast, UK). The plates were incubated in Biochemical oxygen demand (BOD) incubator at 37° C. for 18 hours and then examined for growth.

P. aeruginosa R 20 = assay: Agar dilution MIC (CLSI), compound alone; format: cell-based; conditions: Pseudomonas aeruginosa, R20
Description: as §1

E. coli 7 MP = assay: Agar dilution MIC (CLSI), compound alone; format: cell-based; conditions: Escherichia coli
Description: as §1

E. cloacae M 20 = assay: Agar dilution MIC (CLSI), compound alone; format: cell-based; conditions: Enterobacter cloacae, M20
Description: as §1

E. coli NCTC 13352 = assay: Agar dilution MIC (CLSI), compound alone; format: cell-based; conditions: Escherichia coli, NCTC13352
Description: as §1

E. coli M 50 = assay: Agar dilution MIC (CLSI), compound alone; format: cell-based; conditions: Escherichia coli, M50
Description: as §1

P. aeruginosa PAO1 = assay: Agar dilution MIC (CLSI), compound alone; format: cell-based; conditions: Pseudomonas aeruginosa
Description: as §1

K. pneumoniae S 21 = assay: Agar dilution MIC (CLSI), compound alone; format: cell-based; conditions: Klebsiella pneumoniae, S21
Description: as §1

E. coli M 49 = assay: Agar dilution MIC (CLSI), compound alone; format: cell-based; conditions: Escherichia coli, M49
Description: as §1

C. frundaii 58 MP = assay: Agar dilution MIC (CLSI), compound alone; format: cell-based
Description: as §1

P. aeruginosa ATCC 27853 = assay: Agar dilution MIC (CLSI), compound alone; format: cell-based; conditions: Pseudomonas aeruginosa, ATCC27853
Description: as §1

E. coli NCTC 13351 = assay: Agar dilution MIC (CLSI), compound alone; format: cell-based; conditions: Escherichia coli, NCTC13351
Description: as §1

K. pneumoniae B 77 = assay: Agar dilution MIC (CLSI), compound alone; format: cell-based; conditions: Klebsiella pneumoniae, B77
Description: as §1

P. aeruginosa 2779 = assay: Agar dilution MIC (CLSI), compound alone; format: cell-based; conditions: Pseudomonas aeruginosa
Description: as §1

[1] = test system: K. pneumoniae H521 (KPC, SHV, TEM); assay: Agar dilution MIC (CLSI), compound alone; format: cell-based
Description: as §1

[2] = test system: E. coli NCTC 13353 (CTX-M15, OXA-1); assay: Agar dilution MIC (CLSI), compound alone; format: cell-based
Description: as §1

[3] = test system: Multi Drug Resistant (MDR) Gram-negative bacterial strains; assay: Antibacterial activity alone; format: cell-based; conditions: compounds used alone; compared with standards (imipenem, ceftazidime) or avibactam
Description: as §1

[4] = test system: K. Pneomoniae S48 (NDM, SHV, TEM); assay: Agar dilution MIC (CLSI), compound alone; format: cell-based, K. pneumoniae; conditions: Klebsiella pneumoniae
Description: as §1

[5] = target: T1, Class D beta-lactamase OXA 23 (A baumannii NCTC 13301) (Acinetobacter baumannii, UniProt Q9L4P2); assay: Beta-lactamase enzyme inhibition (Nitrocefin, crude enzyme); format: biochemical; conditions: A baumannii NCTC 13301 (OXA 23), Nitrocefin 100 μM
T1 construct: preincubated mixture of crude enzyme and the compounds; endogenous in cells; host or cells: A. baumannii NCTC 13301 (crude enzyme preparation)
T1 sequence (Q9L4P2 18-273): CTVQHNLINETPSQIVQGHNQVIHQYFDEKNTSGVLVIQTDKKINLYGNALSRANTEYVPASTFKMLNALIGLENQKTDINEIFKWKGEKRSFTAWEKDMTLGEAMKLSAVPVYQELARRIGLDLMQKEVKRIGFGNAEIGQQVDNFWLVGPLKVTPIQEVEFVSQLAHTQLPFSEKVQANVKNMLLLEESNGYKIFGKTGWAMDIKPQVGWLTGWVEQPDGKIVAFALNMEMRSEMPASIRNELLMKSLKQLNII
Description: (§2) Absorbance was measured at 485 nm by UV-spectrophotometer. The IC50 was calculated by plotting absorbance against concentration through Sigmoidal dose response curve using Graph Pad software.

[6] = test system: Class C beta-lactamase CMY/DHA (E. coli M50); assay: as above; format: biochemical; conditions: Nitrocefin 100 μM
Description: as §2

[7] = target: Class A beta-lactamase SHV 18 (K. pneumoniae ATCC 700603) (Klebsiella pneumoniae, UniProt P0AD64); assay: as above; format: biochemical; conditions: read-out: Beta-lactamase enzyme inhibition IC50, K. pneumoniae ATCC 700603 (SHV 18), Nitrocefin 100 μM
Class A beta-lactamase SHV 18 (K. pneumoniae ATCC 700603), sequence (P0AD64 22-286 limits assumed): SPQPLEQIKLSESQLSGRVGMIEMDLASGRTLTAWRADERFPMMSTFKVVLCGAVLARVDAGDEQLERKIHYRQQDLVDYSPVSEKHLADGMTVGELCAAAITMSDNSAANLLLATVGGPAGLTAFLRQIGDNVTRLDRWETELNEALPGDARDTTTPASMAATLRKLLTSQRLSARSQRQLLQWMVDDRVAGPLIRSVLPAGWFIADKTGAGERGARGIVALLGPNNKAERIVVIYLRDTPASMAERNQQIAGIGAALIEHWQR
Description: as §2

O=C1N2C[C@@H](CC[C@H]2c2nnc(Cc3ccccc3)o2)N1OS(=O)(=O)O [Example 5, (2S,5R)-sulfuric acid mono-[2-(5-benzyl-[1,3,4]-oxadiazol-2-yl)-7-oxo-1,6-diaza-bicyclo[3.2.1]oct-6-yl] ester]
MIC (K. pneumoniae H 525): 16 µg/mL (≈ 42.1 µM) | MIC (P. aeruginosa R 20): > 32 µg/mL | MIC (E. coli 7 MP): 32 µg/mL (≈ 84.1 µM) | MIC (E. cloacae M 20): > 32 µg/mL | MIC (E. coli NCTC 13352): 16 µg/mL (≈ 42.1 µM) | MIC (E. coli M 50): 16 µg/mL (≈ 42.1 µM) | MIC (P. aeruginosa PAO1): > 32 µg/mL | MIC (K. pneumoniae S 21): > 32 µg/mL | MIC (E. coli M 49): > 32 µg/mL | MIC (C. frundaii 58 MP): > 32 µg/mL | MIC (P. aeruginosa ATCC 27853): > 32 µg/mL | MIC (E. coli NCTC 13351): 16 µg/mL (≈ 42.1 µM) | MIC (K. pneumoniae B 77): > 32 µg/mL | MIC (P. aeruginosa 2779): > 32 µg/mL | MIC ([1]; K. pneumoniae H 521, Table 3): 32 µg/mL (≈ 84.1 µM) | MIC ([1]; Klebsiella pneumoniae): 32 µg/mL (≈ 84.1 µM) | MIC ([2]; E. coli NCTC 13353, Table 3): 8 µg/mL (≈ 21 µM) | MIC ([2]; Escherichia coli, NCTC13353): 8 µg/mL (≈ 21 µM) | Antibacterial activity (MIC values) in words [3]: exhibited antibacterial activity in comparison to avibactam | MIC [4]: 8 µg/mL (≈ 21 µM) | IC50 [5]: 280 nM | IC50 [6]: 6 nM | IC50 [7]: 33 nM
